We go through one compound from US6057317A, “Heterocyclic compounds” (Adir et Compagnie, priority 1997, dated 2000).

What is called Ki is the dissociation constant of the complex between target and ligand, obtained from inhibition or displacement.

One experiment deals with SHR rats. Kind of experiment: Antihypertensive activity in conscious rats. The experiment is classed as in vivo, rat. The conditions noted are these: oral, dose of 15 mg/kg. As to the method: The tests were carried out in SHR rats. The animals are anaesthetised. A heparinised catheter is introduced into the left carotid artery and connected to a recording apparatus so as to measure the systolic and diastolic arterial pressure and the heart rate. The animals are returned to their cage and the tests are carried out after 24 hours.
The parameters to be measured stabilise during a period of at least 30 minutes, during which a maximum of 1.5 ml of saline solution is injected in such a manner as to optimise the measurements. Only animals whose arterial pressure is higher than or equal to 170 mmHg are included in the study.
The test compounds of the carrier are administered orally and the measurements are carried out before the treatment and every ten minutes after treatment, for 4 hours, and then 8 and 24 hours after treatment.

In the next experiment the target is imidazoline I2 receptor. Kind of experiment: Measurement of in vitro affinity for the I2 receptor (radioligand displacement). It is filed as binding. The following applies: [3H] idazoxan + 10 μM noradrenaline; renal cortex of rabbit. On the procedure: (§1) The profile of binding to the imidazoline I1 and I2 receptors was determined for the compounds of the invention by evaluating the ability of those compounds to displace specific radioligands of the receptors in question.
(§2) The following Table indicates the radioligand used to label each receptor, the compound and the concentration selected to determine the non-specific fraction, and the tissue selected. […]
A general note: Displacement assays read how much labelled ligand stays bound in the presence of the test substance.

In the next experiment the target is imidazoline I1 receptor. In words: Measurement of in vitro affinity for the I1 receptor (radioligand displacement). It is filed as binding. The following applies: [3H] clonidine + 10 μM noradrenaline; bovine lateral reticulated nucleus. As to the method: as §1, §2
10 μM reticulated nucleus

On to `Cc1ccc2c(c1)N(C)CC(C1=NCCN1)O2` (stereo not drawn) [Example 2, 2-(4,5-Dihydro-1H-2-imidazolyl)-4,6-dimethyl-3,4-dihydro-2H-1,4-benzoxazineoxalate], for which the “effect on arterial pressure” value in the experiment with SHR rats is “allowed the arterial pressure to be normalized”. In addition, the values for the Ki at imidazoline I2 receptor and at imidazoline I1 receptor were 2 nM and 22 nM, respectively.
